Laboratory results taken from patent US20080311221A1, “LEWIS ACID AND OIL-SOLUBLE HYBRID PESTICIDE CONCENTRATE THAT SPONTANEOUSLY FORMS A WATER-BASED MICROEMULSION” (PBI/Gordon Corporation, priority 2007, published 2008).

Legend:
[1] = Standard accelerated chemical stability test, HPLC of each active, 40° C. for thirty days; type: physicochemical; conditions: for Final percent concentration of active in concentrate: HPLC after 40° C. for thirty days, sealed container; for Initial percent concentration of active in concentrate: HPLC before storage, concentrate of Example 4 (so in the source); for % Diff: final vs initial, 40° C. for thirty days
Experimental: Another sample of the concentrate Example 4 was subjected to a standard accelerated chemical stability test by conducting an HPLC analysis of each of the active ingredients to determine the percent concentration of each active in the concentrate. The sample was then placed in a sealed container and stored at 40° C. for thirty days. An HPLC analysis was repeated following the extended storage period. All are within accepted limits as established by U.S. EPA for pesticidal products.

[2] = Ambient storage stability test, HPLC, 25° C. for two and one-half months; type: physicochemical; conditions: for Final percent concentration of active in concentrate: HPLC after 25° C. for two and one-half months; for Initial percent concentration of active in concentrate: HPLC before storage, concentrate of Example 4 (so in the source); for % Diff: final vs initial, 25° C. for two and one-half months
Experimental: A further sample of the concentrate of Example 4 was tested under ambient storage conditions at 25° C. for two and one-half months. The sample was initially subjected to an HPLC test, and then again tested at the end of the storage period.

Row | SMILES | Final percent concentration of active in concentrate [1] | Initial percent concentration of active in concentrate [1] | % Diff [1] | Final percent concentration of active in concentrate [2] | Initial percent concentration of active in concentrate [2] | % Diff [2]
1 | O=C(O)COc1ccc(Cl)cc1Cl [2,4-D] | 8.987% | 9.203% | −2.35% | 9.154% | 9.203% | −0.53%
2 | COc1c(Cl)ccc(Cl)c1C(=O)O [Dicamba] | 1.091% | 1.141% | −4.38% | 0.933% | 0.946% | −1.37%
3 | CSC(=O)c1c(C(F)F)nc(C(F)(F)F)c(C(=O)SC)c1CC(C)C [Dithiopyr] | 1.909% | 1.977% | −3.44% | 1.921% | 1.977% | −2.83%
4 | O=C(O)c1c(Cl)ccc2cc(Cl)cnc12 [Quinclorac] | 1.876% | 1.91% | −1.78% | 1.929% | 1.91% | 0.99%
5 | Cc1nn(-c2cc(NS(C)(=O)=O)c(Cl)cc2Cl)c(=O)n1C(F)F [Sulfentrazone] | 0.363% | 0.379% | −4.22% | 0.380% | 0.379% | 0.26%
